# Measurements: patent US20210363591A1, “MAPK1 MUTATIONS AND DRUG SENSITIVITY” (The Chinese University of Hong Kong, priority 2020, published 2021)
# Experiments:
# [1] = system: MAPK1p.R135K mutant xenografts (FaDu); experiment: Erlotinib response of isogenic FaDu tumor xenografts expressing MAPK1 p.R135K in nude mice
# Text: (§1) FaDu cells expressing MAPK1 WT, MAPK1 p.D321N and MAPK1 p.R135K respectively were inoculated into nude mice subcutaneously (8×10^5 cells per inoculation). Mice with tumor expressing respective MAPK1 WT/mutations were randomized into erlotinib (erlotinib dissolved in 10% 2-Hydroxypropyl-beta-cyclodextrin (HP-j-CD) or vehicle (10% HP-β-CD) treatment groups (N=8 tumors per group). Treatment started when tumors were palpable and reached the size ˜3×3-4×4 mm^2. Erlotinib or the vehicle control were administered by oral gavage (50 mg/kg erlotinib or the corresponding vehicle amount) for 5 consecutive days as indicated by the arrows on the X-axis. FIG. 2B: IHC staining showing membranous p-EGFR expression of these xenografts post erlotinib/vehicle treatments (N>3 per group). […] FIG. 2C: IHC staining showing corresponding pan-cytokeratin expression in these tumors post erlotinib/vehicle treatment (N>3 per group).
# (§2) The VECTASTAIN Elite ABC Universal PLUS Kit Peroxidase (Horse Anti-Mouse/Rabbit IgG) (Cat: PKK-8200) was used for IHC. Cytokeratin mouse antibody (DAKO, Cat: M3515, 1:500) and Anti-EGFR (phosphor Y1173) antibody [E124] (Abcam, Cat: ab32578, 1:100) were used as primary antibodies.
# (§3) Isogenic FaDu cells were infected with MAPK1-WT and MAPK1 mutants by retrovirus and injected into nude mice subcutaneously (8×10^5 cell per mouse, age of 4-5 weeks). Mice injected with respective infected FaDu cells were randomized into Erlotinib treatment group or Vehicle group (2 tumors born by each mice, 4 mice per group). Treatment started at day 6 after injection with 6 dose per week until day 15. Erlotinib (dissolved in 10% HP-j-CD) or vehicle control were administered orally at a dose of 50 mg/kg. Tumor volume was monitored and calculated by the equation: length×width^2/2 repeatedly for 5 consecutive days as indicated by the arrows on the X-axis of FIG. 2(a). The mice were sacrifice at the end-point of the experiment.
# [2] = system: FaDu-MAPK1 WT xenografts; experiment: Erlotinib response of isogenic FaDu tumor xenografts expressing MAPK1-WT in nude mice
# Text: as §1
# The VECTASTAIN Elite ABC Universal PLUS Kit Peroxidase (Horse Anti-Mouse/Rabbit IgG) (Cat: PKK-8200) was used for IHC. […]
# Isogenic FaDu cells were infected with MAPK1-WT and MAPK1 mutants by retrovirus and injected into nude mice subcutaneously (8×10^5 cell per mouse, age of 4-5 weeks). […] Tumor volume was monitored and calculated by the equation: length×width^2/2 repeatedly for 5 consecutive days as indicated by the arrows on the X-axis of FIG. 2(a). […]
# [3] = system: MAPK1p.D321N mutant tumors (FaDu xenografts); experiment: Erlotinib response of isogenic FaDu tumor xenografts expressing MAPK1 p.D321N in nude mice
# Text: as §1, §2, §3
compound,measurement,setting,value
C#Cc1cccc(Nc2ncnc3cc(OCCOC)c(OCCOC)cc23)c1 [erlotinib],tumor-negative (cytokeratin-negative) areas (IHC),[1]; MAPK1p.R135K FaDu xenografts post erlotinib 50 mg/kg oral,noticeable increases in tumor-negative areas
same,percent tumor cells bearing membranous p-EGFR staining (IHC),"[1]; MAPK1p.R135K FaDu xenografts post erlotinib 50 mg/kg oral, 90% in vehicle treated tumors",50%
same,tumor size reduction vs. vehicle treatment,"[1]; MAPK1p.R135K FaDu xenografts, erlotinib 50 mg/kg oral gavage, trend, P=0.0646",28.0%
same,change in tumor size vs. vehicle control,"[2]; erlotinib 50 mg/kg oral gavage, P=0.4080",did not result in any change in tumor size
same,change in membranous p-EGFR signal in the tumors (IHC),"[2]; erlotinib 50 mg/kg oral, vs. vehicle control",did not result in any change
same,tumor-negative (cytokeratin-negative) areas (IHC),[3]; MAPK1p.D321N FaDu xenografts post erlotinib 50 mg/kg oral,concomitant increases in tumor-negative areas
same,membranous p-EGFR signals remaining in the tumors (IHC),"[3]; MAPK1p.D321N FaDu xenografts post erlotinib 50 mg/kg oral, untreated mutants 80-90% positive cells",less than 20%
same,reduction in tumor volume vs. vehicle treatment,"[3]; MAPK1p.D321N FaDu xenografts, erlotinib 50 mg/kg oral gavage, P=0.0037",60.3%
